Results reported in US6110965A, “Ketolides from the class of 15-membered lactams” (PLIVA, farmaceutska, kemijska, prehrambena i kozmeticka …, priority 1998, dated 2000).
In brackets after ≈: the same amount, converted by molar mass. Read-outs that look alike come from different tables or passages of the source.

Experiments:
[1] = test system: Proteus mirabilis ATCC 43071; experiment: Antibacterial in vitro action (MIC), microdilution process according to NCCLS; type: cell-based
[2] = test system: Escherichia coli ATCC 25922; experiment: as above; type: cell-based; settings: ATCC25922, read-out: Antibacterial in vitro action (MIC, mg/l)
[3] = test system: Clostridium perfringens ATCC 13124; experiment: microbe, parasite or virus in culture; type: cell-based; settings: ATCC13124, read-out: Antibacterial in vitro action (MIC, mg/l)
[4] = test system: Haemophilus influenzae ATCC 49766; experiment: Antibacterial in vitro action (MIC), microdilution process according to NCCLS; type: cell-based
[5] = test system: Salmonella choleraesuis ATCC 13076; experiment: as above; type: cell-based; settings: Salmonella enterica, read-out: Antibacterial in vitro action (MIC, mg/l)
[6] = oral preparations; cited from earlier work
[7] = test system: Campylobacter jejuni ATCC 33291; experiment: Antibacterial in vitro action (MIC), microdilution process according to NCCLS; type: cell-based
[8] = test system: Campylobacter fetus ATCC 19438; experiment: as above; type: cell-based
[9] = test system: Moraxella catarrhalis ATCC 25238; experiment: as above; type: cell-based
[10] = test system: Listeria monocytogenes ATCC 7644; experiment: as above; type: cell-based
[11] = test system: Streptococcus pyogenes ATCC 19615; experiment: as above; type: cell-based
[12] = test system: Haemophilus influenzae ATCC 49247; experiment: as above; type: cell-based
[13] = test system: Shigella flexneri ATCC 12022; experiment: as above; type: cell-based; settings: ATCC12022, read-out: Antibacterial in vitro action (MIC, mg/l)
Protocol: Antibacterial in vitro action of the new compounds of the general formula (I), wherein A, B, R^1, R^2 and R^3 have the above-mentioned meanings, and of their pharmaceutically acceptable addition salts with inorganic or organic acids was determined on a series of standard test microorganisms and clinical isolates by microdilution process according to the protocol NCCLS (The National Commitee for Clinical Laboratory Standards, Document M7-A2, Vol. 10, No. 8, 1990 and Document M11-A2, Vol. 10, 15,1991). The control of the laboratory process was performed by means of control strain Staphyloccocus aureus ATTC 29213 (The American Type Culture Collection) according to protocol NCCLS (Document M7-A2, Table 3, M100-S4).
The antibacterial in vitro action on a series of standard test microorganisms for 6-O-methyl-8a-aza-8a-homoerythromycin A from Example 3 in comparison with azithromycin, erythromycin and clarithromycin is represented in Table 1.

[14] = test system: Staphylococcus aureus ATCC 25923; experiment: as above; type: cell-based
[15] = test system: Yersinia enterocolitica ATCC 9610; experiment: as above; type: cell-based
[16] = test system: Citroobacter freundii ATCC 8090; experiment: as above; type: cell-based; settings: read-out: Antibacterial in vitro action (MIC, mg/l)
[17] = test system: Staphylococcus epidermidis ATCC 12228; experiment: as above; type: cell-based
[18] = test system: Proteus mirabilis ATCC 12453; experiment: as above; type: cell-based
[19] = test system: Pseudomonas aeruginosa ATCC 25619; experiment: as above; type: cell-based
[20] = test system: Enterococcus faecalis ATCC 35550; experiment: as above; type: cell-based
[21] = test system: Streptococcus pneumoniae ATCC 6305; experiment: as above; type: cell-based
[22] = test system: human phagocyte cells; settings: cited from earlier work
[23] = test system: gram-negative bacteria; settings: cited from earlier work
[24] = in vivo; cited from earlier work
[25] = compared to erythromycin A; cited from earlier work
[26] = test system: gram-positive bacterial strains; settings: compared to erythromycin A; cited from earlier work
[27] = Campylobacter jejuni, ATCC33291, read-out: Antibacterial in vitro action (MIC, mg/l)
[28] = Campylobacter fetus, ATCC19438, read-out: Antibacterial in vitro action (MIC, mg/l)
[29] = Moraxella catarrhalis, ATCC25238, read-out: Antibacterial in vitro action (MIC, mg/l)
[30] = Listeria monocytogenes, ATCC7644, read-out: Antibacterial in vitro action (MIC, mg/l)
[31] = Streptococcus pyogenes, ATCC19615, read-out: Antibacterial in vitro action (MIC, mg/l)
[32] = Streptococcus pneumoniae, ATCC6305, read-out: Antibacterial in vitro action (MIC, mg/l)
[33] = ATCC43071, Proteus mirabilis ATCC 43071, read-out: Antibacterial in vitro action (MIC, mg/l)
[34] = ATCC49766, Haemophilus influenzae ATCC 49766, read-out: Antibacterial in vitro action (MIC, mg/l)
[35] = Salmonella choleraesuis ATCC 13076
[36] = ATCC49247, Haemophilus influenzae ATCC 49247, read-out: Antibacterial in vitro action (MIC, mg/l)
[37] = ATCC25923, Staphylococcus aureus ATCC 25923, read-out: Antibacterial in vitro action (MIC, mg/l)
[38] = ATCC9610, Yersinia enterocolitica ATCC 9610, read-out: Antibacterial in vitro action (MIC, mg/l)
[39] = Citroobacter freundii ATCC 8090
[40] = ATCC12228, Staphylococcus epidermidis ATCC 12228, read-out: Antibacterial in vitro action (MIC, mg/l)
[41] = ATCC12453, Proteus mirabilis ATCC 12453, read-out: Antibacterial in vitro action (MIC, mg/l)
[42] = ATCC25619, Pseudomonas aeruginosa ATCC 25619, read-out: Antibacterial in vitro action (MIC, mg/l)
[43] = ATCC35550, Enterococcus faecalis ATCC 35550, read-out: Antibacterial in vitro action (MIC, mg/l)

Structure (SMILES) | MIC [2] | MIC [3] | MIC [7, 27] | MIC [8, 28] | MIC [9, 29] | MIC [10, 30] | MIC [11, 31] | MIC [13] | MIC [21, 32] | MIC [1, 33] | MIC [4, 34] | MIC [5, 35] | MIC [12, 36] | MIC [14, 37] | MIC [15, 38] | MIC [16, 39] | MIC [17, 40] | MIC [18, 41] | MIC [19, 42] | MIC [20, 43] | further results
CC[C@H]1OC(=O)[C@H](C)[C@@H](O[C@H]2C[C@@](C)(OC)[C@@H](O)[C@H](C)O2)[C@H](C)[C@@H](O[C@@H]2O[C@H](C)C[C@H](N(C)C)[C@H]2O)[C@](C)(O)C[C@@H](C)C(=O)[C@H](C)[C@@H](O)[C@]1(C)O [Er, erythromycin A] | 32 mg/L (≈ 43.6 µM) | 0.5 mg/L (≈ 0.681 µM) | < 0.125 mg/L | < 0.125 mg/L | < 0.125 mg/L | < 0.125 mg/L | < 0.125 mg/L | 32 mg/L (≈ 43.6 µM) | < 0.125 mg/L |  |  |  |  |  |  |  |  |  |  |  | MIC ([1]; Proteus mirabilis, ATCC43071, read-out: Antibacterial in vitro action (MIC, mg/l)): > 128 mg/L; MIC ([4]; Haemophilus influenzae, ATCC49766, read-out: Antibacterial in vitro action (MIC, mg/l)): 4 mg/L (≈ 5.45 µM); MIC [5]: 64 mg/L (≈ 87.2 µM); gastric intolerance [6]: gastric intolerance in many patients; MIC ([12]; Haemophilus influenzae, ATCC49247, read-out: Antibacterial in vitro action (MIC, mg/l)): 2 mg/L (≈ 2.73 µM); MIC ([14]; Staphylococcus aureus, ATCC25923, read-out: Antibacterial in vitro action (MIC, mg/l)): 0.25 mg/L (≈ 0.341 µM); MIC ([15]; Yersinia enterocolitica, ATCC9610, read-out: Antibacterial in vitro action (MIC, mg/l)): 16 mg/L (≈ 21.8 µM); MIC [16]: 64 mg/L (≈ 87.2 µM); MIC ([17]; Staphylococcus epidermidis, ATCC12228, read-out: Antibacterial in vitro action (MIC, mg/l)): 0.25 mg/L (≈ 0.341 µM); MIC ([18]; Proteus mirabilis, ATCC12453, read-out: Antibacterial in vitro action (MIC, mg/l)): > 128 mg/L; MIC ([19]; Pseudomonas aeruginosa, ATCC25619, read-out: Antibacterial in vitro action (MIC, mg/l)): > 128 mg/L; MIC ([20]; Enterococcus faecalis, ATCC35550, read-out: Antibacterial in vitro action (MIC, mg/l)): 1 mg/L (≈ 1.36 µM)
CC[C@H]1OC(=O)[C@H](C)[C@@H](O[C@H]2C[C@@](C)(OC)[C@@H](O)[C@H](C)O2)[C@H](C)[C@@H](O[C@@H]2O[C@H](C)C[C@H](N(C)C)[C@H]2O)[C@](C)(O)C[C@@H](C)CN(C)[C@H](C)[C@@H](O)[C@]1(C)O [Az, 9-deoxo-9a-methyl-9a-aza-9a-homoerythromycin A] | 2 mg/L (≈ 2.67 µM) | 0.125 mg/L (≈ 0.167 µM) | < 0.125 mg/L | < 0.125 mg/L | < 0.125 mg/L | < 0.125 mg/L | < 0.125 mg/L | 1 mg/L (≈ 1.34 µM) | < 0.125 mg/L | 64 mg/L (≈ 85.4 µM) | 1 mg/L (≈ 1.34 µM) | 2 mg/L (≈ 2.67 µM) | 0.5 mg/L (≈ 0.668 µM) | 0.5 mg/L (≈ 0.668 µM) | 1 mg/L (≈ 1.34 µM) | 4 mg/L (≈ 5.34 µM) | 1 mg/L (≈ 1.34 µM) | 64 mg/L (≈ 85.4 µM) | 64 mg/L (≈ 85.4 µM) | 0.5 mg/L (≈ 0.668 µM) | penetration and accumulation within human phagocyte cells [22]: able to penetrate and to accumulate within human phagocyte cells; antimicrobial spectrum [23]: broad antimicrobial spectrum including gram-negative bacteria; biological half-time [24]: long biological half-time
CC[C@H]1OC(=O)[C@H](C)[C@@H](O[C@H]2C[C@@](C)(OC)[C@@H](O)[C@H](C)O2)[C@H](C)[C@@H](O[C@@H]2O[C@H](C)C[C@H](N(C)C)[C@H]2O)[C@](C)(OC)C[C@@H](C)C(=O)[C@H](C)[C@@H](O)[C@]1(C)O [Cl, 6-O-methyl-erythromycin A] | 32 mg/L (≈ 42.8 µM) | 0.125 mg/L (≈ 0.167 µM) | < 0.125 mg/L | < 0.125 mg/L | < 0.125 mg/L | < 0.125 mg/L | < 0.125 mg/L | 32 mg/L (≈ 42.8 µM) | < 0.125 mg/L | > 128 mg/L | 8 mg/L (≈ 10.7 µM) | 32 mg/L (≈ 42.8 µM) | 4 mg/L (≈ 5.35 µM) | 0.5 mg/L (≈ 0.668 µM) | 16 mg/L (≈ 21.4 µM) | 64 mg/L (≈ 85.6 µM) | 0.25 mg/L (≈ 0.334 µM) | 128 mg/L (≈ 171 µM) | > 128 mg/L | 0.25 mg/L (≈ 0.334 µM) | stability in acidic medium [25]: considerably more stable in acidic medium; in vitro activity against gram-positive bacterial strains [26]: increased in vitro activity against gram-positive bacterial strains
CC[C@H]1OC(=O)[C@H](C)[C@@H](O[C@H]2C[C@@](C)(OC)[C@@H](O)[C@H](C)O2)[C@H](C)[C@@H](O[C@@H]2O[C@H](C)C[C@H](N(C)C)[C@H]2O)[C@](C)(OC)C[C@@H](C)NC(=O)[C@H](C)[C@@H](O)[C@]1(C)O [Example 3, 6-O-methyl-8a-aza-8a-homoerythromycin A] | 8 mg/L (≈ 10.5 µM) | 0.25 mg/L (≈ 0.328 µM) |  |  |  |  |  | 4 mg/L (≈ 5.24 µM) |  | 32 mg/L (≈ 41.9 µM) | 1 mg/L (≈ 1.31 µM) | 8 mg/L (≈ 10.5 µM) | 1 mg/L (≈ 1.31 µM) | 0.5 mg/L (≈ 0.655 µM) | 4 mg/L (≈ 5.24 µM) | 16 mg/L (≈ 21 µM) | 0.5 mg/L (≈ 0.655 µM) | 32 mg/L (≈ 41.9 µM) | 32 mg/L (≈ 41.9 µM) | 1 mg/L (≈ 1.31 µM) | MIC ([7]; ATCC33291, Campylobacter jejuni ATCC 33291, read-out: Antibacterial in vitro action (MIC, mg/l)): < 0.125 mg/L; MIC ([8]; ATCC19438, Campylobacter fetus ATCC 19438, read-out: Antibacterial in vitro action (MIC, mg/l)): < 0.125 mg/L; MIC ([9]; ATCC25238, Moraxella catarrhalis ATCC 25238, read-out: Antibacterial in vitro action (MIC, mg/l)): < 0.125 mg/L; MIC ([10]; ATCC7644, Listeria monocytogenes ATCC 7644, read-out: Antibacterial in vitro action (MIC, mg/l)): < 0.125 mg/L; MIC ([11]; ATCC19615, Streptococcus pyogenes ATCC 19615, read-out: Antibacterial in vitro action (MIC, mg/l)): < 0.125 mg/L; MIC ([21]; ATCC6305, Streptococcus pneumoniae ATCC 6305, read-out: Antibacterial in vitro action (MIC, mg/l)): < 0.125 mg/L
